Data as given in patent US20250171463A1 (BIOGEN MA INC., priority 2022, published 2025).

Target: T1, EBP (Homo sapiens, UniProt Q15125)
T1 construct: HEK293T cells were utilized as the source of EBP enzyme; endogenous in cells; host or cells: HEK293T
Experiment: EBP Functional Assay (EBP immunoaffinity LC-MS assay)
Assay type: biochemical
Details: EBP enzyme from HEK293T cells; 30 min with inhibitor, then zymosterol-d5, 37° C., 4 h; percent conversion to dehydrolathosterol-d5 by LC-APCI MRM MS
Outline: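 IC50 comes from a 4-parameter logistic fit of zymosterol-d5-to-product percent conversion, measured by LC-APCI MRM MS after sterol extraction. Compounds were preincubated 30 min with EBP from HEK293T cells before deuterated substrate was added for 4 h at 37° C; Tasin-1 served as reference.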

T1 sequence (Q15125 whole entry): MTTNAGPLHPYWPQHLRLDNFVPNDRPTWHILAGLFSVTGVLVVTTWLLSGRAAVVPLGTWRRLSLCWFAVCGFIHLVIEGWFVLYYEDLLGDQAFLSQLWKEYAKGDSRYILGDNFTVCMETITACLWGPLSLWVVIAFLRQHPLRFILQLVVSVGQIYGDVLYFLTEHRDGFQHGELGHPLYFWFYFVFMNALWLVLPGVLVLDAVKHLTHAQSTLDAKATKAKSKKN

IC50 [nM] | Structure (SMILES)
100 to 250 | O=S(=O)(c1ccc(OC(F)F)cc1)N1CCO[C@]2(CCN(C3CC4(COC4)C3)C2)C1 (single isomer, unassigned) [Example 27]
250 to 4000 | COc1ncc(C)cc1S(=O)(=O)N1CCOC2(CCN(C3CCOCC3)C2)C1 (centres unmarked) [Example 16, 9-((2-Methoxy-5-methylpyridin-3-yl)sulfonyl)-2-(tetrahydro-2H-pyran-4-yl)-6-oxa-2,9-diazaspiro[4.5]decane]
100 to 250 | Cc1nc(C(F)(F)F)ccc1S(=O)(=O)N1CC2(CN(CC3(C)CCCO3)C2)C1 (centres unmarked) [Example 134]
250 to 4000 | O=S(=O)(c1ccc(OC(F)F)cc1)N1CCOC2(CCN(CC3CCOCC3)CC2)C1 [Example 19, 4-((4-(Difluoromethoxy)phenyl)sulfonyl)-9-((tetrahydro-2H-pyran-4-yl)methyl)-1-oxa-4,9-diazaspiro[5.5]undecane]
< 100 | Cc1nc(C2CC2(F)F)ccc1S(=O)(=O)N1CC2(CN(C3CCOCC3)C2)C1 (centres unmarked) [Example 163, 2-((6-(2,2-difluorocyclopropyl)-2-methylpyridin-3-yl)sulfonyl)-6-(tetrahydro-2H-pyran-4-yl)-2,6-diazaspiro[3.3]heptane]
< 100 | O=S(=O)(c1ccc(OC(F)F)cc1)N1CCO[C@@]2(CCN(C3CCOCC3)C2)C1 (single isomer, unassigned) [Example 4]
100 to 250 | Cn1nc(C(F)F)cc1S(=O)(=O)N1CC2(CN(C3CCOCC3)C2)C1 [Example 96, 2-((3-(difluoromethyl)-1-methyl-1H-pyrazol-5-yl)sulfonyl)-6-(tetrahydro-2H-pyran-4-yl)-2,6-diazaspiro[3.3]heptane]
250 to 4000 | Cc1ncccc1S(=O)(=O)N1CC2(CN(C3CCOCC3)C2)C1 [Example 164, 2-((2-methylpyridin-3-yl)sulfonyl)-6-(tetrahydro-2H-pyran-4-yl)-2,6-diazaspiro[3.3]heptane]
250 to 4000 | Cc1nc(C(F)(F)F)ccc1S(=O)(=O)N1CC2(CN(CC3COCCO3)C2)C1 (racemic) [Example 216, rac-2-((1,4-dioxan-2-yl)methyl)-6-((2-methyl-6-(trifluoromethyl)pyridin-3-yl)sulfonyl)-2,6-diazaspiro[3.3]heptane]
100 to 250 | Cc1nc(C(C)(F)F)ccc1S(=O)(=O)N1CC2(CN(C3CC4(COC4)C3)C2)C1 [Example 78, 2-((6-(1,1-difluoroethyl)-2-methylpyridin-3-yl)sulfonyl)-6-(2-oxaspiro[3.3]heptan-6-yl)-2,6-diazaspiro[3.3]heptane]
< 100 | Cc1nc(OC(F)F)ccc1S(=O)(=O)N1CC2(CN(C3CCOCC3)C2)C1 [Example 94, 2-((6-(difluoromethoxy)-2-methylpyridin-3-yl)sulfonyl)-6-(tetrahydro-2H-pyran-4-yl)-2,6-diazaspiro[3.3]heptane]
< 100 | O=S(=O)(c1ccc(C2CC2)nc1C(F)(F)F)N1CC2(CN(C3CCOCC3)C2)C1 [Example 107, 2-((6-cyclopropyl-2-(trifluoromethyl)pyridin-3-yl)sulfonyl)-6-(tetrahydro-2H-pyran-4-yl)-2,6-diazaspiro[3.3]heptane]
100 to 250 | O=S(=O)(c1ccc(C(F)(F)F)cc1C(F)(F)F)N1CC2(CN(CC3CCOCC3)C2)C1 [Example 211, 2-((2,4-bis(trifluoromethyl)phenyl)sulfonyl)-6-((tetrahydro-2H-pyran-4-yl)methyl)-2,6-diazaspiro[3.3]heptane]
< 100 | O=S(=O)(c1cc(F)cc(F)c1)N1CCO[C@]2(CCN(C3CCOCC3)C2)C1 (single isomer, unassigned) [Example 14]
250 to 4000 | Cc1nc(C(F)(F)F)ccc1S(=O)(=O)N1CC2(CN(CC3CCCO3)C2)C1 (centres unmarked) [Example 139]
100 to 250 | Cc1nc(C(F)(F)F)ccc1S(=O)(=O)N1CC2(CN(CC3CCOC(C)(C)C3)C2)C1 (centres unmarked) [Example 186]
< 100 | O=S(=O)(c1ccc(OC(F)F)cc1)N1CCC2(CCN(C3CCOCC3)C2)CC1 [Example 39]
250 to 4000 | Cc1nc(C(C)(F)F)ccc1S(=O)(=O)N1CC2(CN(C(C)C3CCOCC3)C2)C1 (centres unmarked) [Example 82]
< 100 | Cc1nc(C(F)(F)F)ccc1S(=O)(=O)N1CC2(CN(CC34CCOC(C)(C3)C4)C2)C1 [Example 74, 2-((1-methyl-2-oxabicyclo[3.1.1]heptan-5-yl)methyl)-6-((2-methyl-6-(trifluoromethyl)pyridin-3-yl)sulfonyl)-2,6-diazaspiro[3.3]heptane]
< 100 | CCc1cc(C(F)(F)F)ncc1S(=O)(=O)N1CC2(CN(C3CCC(C)(O)CC3)C2)C1 (single isomer, unassigned) [Example 127, 4-(6-((4-ethyl-6-(trifluoromethyl)pyridin-3-yl)sulfonyl)-2,6-diazaspiro[3.3]heptan-2-yl)-1-methylcyclohexan-1-ol]
100 to 250 | Cn1nc(C(F)(F)F)cc1S(=O)(=O)N1CC2(CN(CC3CCOC(C)(C)C3)C2)C1 (single isomer, unassigned) [Example 199]

IC50 [nM] | Structure (SMILES)
100 to 250 | O=S(=O)(c1ccc(OC(F)F)cc1)N1CCC2(CC1)CN(C1CCOCC1)CCO2 [Example 30, 9-((4-(Difluoromethoxy)phenyl)sulfonyl)-4-(tetrahydro-2H-pyran-4-yl)-1-oxa-4,9-diazaspiro[5.5]undecane]
100 to 250 | Cc1nc(C(F)(F)F)ccc1S(=O)(=O)N1CC2(CN(C[C@H]3[C@H](C#N)C3(C)C)C2)C1 (racemic) [Example 174]
< 100 | Cc1nc(C(F)(F)F)ccc1S(=O)(=O)N1CCC2(CCN(C3CCOCC3)C2)CC1 [Example 42]
100 to 250 | Cn1nc(C(F)(F)F)cc1S(=O)(=O)N1CC2(CN(CC3(C)CCOCC3)C2)C1 [Example 72, 2-((1-methyl-3-(trifluoromethyl)-1H-pyrazol-5-yl)sulfonyl)-6-((4-methyltetrahydro-2H-pyran-4-yl)methyl)-2,6-diazaspiro[3.3]heptane]
250 to 4000 | COCCOCCCN1CC2(C1)CN(S(=O)(=O)c1ccc(C(F)(F)F)nc1C)C2 [Example 172]
250 to 4000 | Cc1nc(C(F)(F)F)ccc1S(=O)(=O)N1CC2(CN(C3CCC(C)(O)CC3)C2)C1 (centres unmarked) [Example 223, 1-methyl-4-(6-((2-methyl-6-(trifluoromethyl)pyridin-3-yl)sulfonyl)-2,6-diazaspiro[3.3]heptan-2-yl)cyclohexan-1-ol]
250 to 4000 | CCc1cc(C(F)(F)F)ncc1S(=O)(=O)N1CC2(CN(C3CC4(COC4)C3)C2)C1 [Example 125, 2-((4-ethyl-6-(trifluoromethyl)pyridin-3-yl)sulfonyl)-6-(2-oxaspiro[3.3]heptan-6-yl)-2,6-diazaspiro[3.3]heptane]
100 to 250 | O=S(=O)(c1ccc(OC(F)F)cc1)N1CCO[C@]2(CCN(C3CCOCC3)C2)C1 (single isomer, unassigned) [Example 3]
< 100 | COc1ncc(Cl)cc1S(=O)(=O)N1CC2(CN(C3CCOCC3)C2)C1 [Example 99, 2-((5-chloro-2-methoxypyridin-3-yl)sulfonyl)-6-(tetrahydro-2H-pyran-4-yl)-2,6-diazaspiro[3.3]heptane]
250 to 4000 | Cc1nc(C(F)(F)F)ccc1S(=O)(=O)N1CC2(CN(C3CC4(CCO4)C3)C2)C1 (racemic) [Example 69, rac-2-((2-methyl-6-(trifluoromethyl)pyridin-3-yl)sulfonyl)-6-(1-oxaspiro[3.3]heptan-6-yl)-2,6-diazaspiro[3.3]heptane]
< 100 | Cc1nc(C(F)(F)F)ccc1S(=O)(=O)N1CC2(CN(C3CCOCC3)C2)C1 [Example 51, 2-((2-Methyl-6-(trifluoromethyl)pyridin-3-yl)sulfonyl)-6-(tetrahydro-2H-pyran-4-yl)-2,6-diazaspiro[3.3]heptane]
100 to 250 | Cc1ccc(S(=O)(=O)N2CC3(CN(CC4(O)CCOCC4)C3)C2)c(C)c1 [Example 45, 4-((6-((2,4-Dimethylphenyl)sulfonyl)-2,6-diazaspiro[3.3]heptan-2-yl)methyl)tetrahydro-2H-pyran-4-ol]
< 100 | Cc1cc(C(F)(F)F)ccc1S(=O)(=O)N1CC2(CN(CC3CCOCC3)C2)C1 [Example 194, 2-((2-methyl-4-(trifluoromethyl)phenyl)sulfonyl)-6-((tetrahydro-2H-pyran-4-yl)methyl)-2,6-diazaspiro[3.3]heptane]
250 to 4000 | Cc1nc(C(F)(F)F)ccc1S(=O)(=O)N1CC2(CN(C(C)C3COC3)C2)C1 (single isomer, unassigned) [Example 158]
250 to 4000 | Cc1nc(C(C)(F)F)ccc1S(=O)(=O)N1CC2(CN(C3CCOC3)C2)C1 (centres unmarked) [Example 84]
< 100 | CCc1nc(C(F)F)ccc1S(=O)(=O)N1CC2(CN(C3CCOCC3)C2)C1 [Example 205, 2-((6-(difluoromethyl)-2-ethylpyridin-3-yl)sulfonyl)-6-(tetrahydro-2H-pyran-4-yl)-2,6-diazaspiro[3.3]heptane]
< 100 | Cc1cc(OC(F)(F)F)ccc1S(=O)(=O)N1CC2(CN(C3CCOCC3)C2)C1 [Example 50]
< 100 | CC(C)c1cc(S(=O)(=O)N2CC3(CN(C4CCOCC4)C3)C2)n(C)n1 [Example 189, 2-((3-isopropyl-1-methyl-1H-pyrazol-5-yl)sulfonyl)-6-(tetrahydro-2H-pyran-4-yl)-2,6-diazaspiro[3.3]heptane]
100 to 250 | O=S(=O)(c1ccc(OC(F)F)cc1)N1CCOC2(CCN(C3CCOCC3)C2)C1 (racemic) [Example 2, 9-((4-(Difluoromethoxy)phenyl)sulfonyl)-2-(tetrahydro-2H-pyran-4-yl)-6-oxa-2,9-diazaspiro[4.5]decane]
100 to 250 | CC1(O)CCC(N2CC3(C2)CN(S(=O)(=O)c2ccc(C(F)(F)F)nc2C2CC2)C3)CC1 (centres unmarked) [Example 196, 4-(6-((2-cyclopropyl-6-(trifluoromethyl)pyridin-3-yl)sulfonyl)-2,6-diazaspiro[3.3]heptan-2-yl)-1-methylcyclohexan-1-ol]
